Values of other authors, collected in patent US20070032460A1, “Use of voacamine and related compounds in the treatment of malaria” (priority 2005, published 2007).

Test system: multi-drug resistant tumor cells
Conditions: cited from earlier work

## CC=C1CN(C)C2Cc3c([nH]c4ccccc34)C(c3cc4[nH]c5c(c4cc3OC)CCN3CC4CC(CC)C3C5(C(=O)OC)C4)CC1C2C(=O)OC (stereo not shown) [VOA, Voacamine]
  effect on vinblastine-mediated cytotoxicity: enhance vinblastine-mediated cytotbxicity
